Data as given in US8088791B2, “Antibacterial agents” (Biots Scientific Management Pty Ltd, priority 2006, dated 2012).
Converted amounts (≈) assume the structure as drawn. Like-named read-outs stand apart in the source and are kept apart here.

What was measured:
Bacillus subtilis 168CA = test: Minimum Inhibitory Concentration (MIC) testing, broth microdilution, Bacillus subtilis; format: cell-based; conditions: read-out: Bacillus subtilis MICs Activity
How it was run: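 Broth microdilution followed NCCLS M7-A5, in rich broth such as Mueller Hinton, inoculum at OD 0.09 diluted 1:100, compounds in 1.6% DMSO before inoculum. After 16–20 h at 37 °C, MIC was the lowest concentration without visible growth. Score A: ≦8 μg/ml, B: 16–64 μg/ml, C: >64 μg/ml.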

[1] = test system: Staphylococcus aureus ATCC29213; test: Minimum Inhibitory Concentration (MIC) testing, broth microdilution, Staphylococcus aureus; format: cell-based
How it was run: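 Broth microdilution per NCCLS M7-A5 in Mueller Hinton broth, with compound in 1.6% DMSO and inoculum at OD 0.09 diluted 1:100. Plates incubated 16–20 h at 37°C. MIC is the lowest concentration with no visible growth; scored A ≤8, B 16–64, C >64 μg/ml.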

[2] = Staphylococcus aureus ATCC29213, read-out: Staphylococcus aureus MICs Activity

Structure (SMILES)	MIC (Bacillus subtilis 168CA; Bacillus subtilis 168CA) [µg/mL]	MIC [1, 2] [µg/mL]	MIC (Bacillus subtilis 168CA; Bacillus subtilis, 168CA) [µg/mL]	MIC ([1]; Staphylococcus aureus, ATCC29213, read-out: Staphylococcus aureus MICs Activity) [µg/mL]
NC(=O)c1c(F)ccc(OCc2nnc(-c3cccs3)o2)c1F [Example 152, 2,6-Difluoro-3-(5-thiophen-2-yl-[1,3,4]oxadiazol-2-ylmethoxy)-benzamide]	16 to 64 (≈ 47.4 to 190 µM)	16 to 64 (≈ 47.4 to 190 µM)	–	–
COc1ccc(-c2nc(COc3ccc(F)c(C(N)=O)c3F)sc2-c2nccs2)cc1 [Example 155, 2,6-Difluoro-3-[4′-(4-methoxy-phenyl)-[2,5′]bithiazolyl-2′-ylmethoxy]-benzamide]	< 8	< 8	–	–
NC(=O)c1c(F)ccc(OCc2nc3cc(Cl)ncc3s2)c1F [Example 156, 3-(6-Chloro-thiazolo[5,4-c]pyridin-2-ylmethoxy)-2,6-difluoro-benzamide]	< 8	< 8	–	–
NC(=O)c1c(F)ccc(OCc2nc3cc(-c4ccccc4O)ccc3s2)c1F [Example 157, 2,6-Difluoro-3-[5-(2-hydroxy-phenyl)-benzothiazol-2-ylmethoxy]-benzamide]	< 8	< 8	–	–
COc1ccc(-c2nc(COc3ccc(F)c(C(N)=O)c3F)sc2Br)cc1 [Example 158, 3-[5-Bromo-4-(4-methoxy-phenyl)-thiazol-2-ylmethoxy]-2,6-difluoro-benzamide]	< 8	< 8	–	–
NC(=O)c1c(F)ccc(OCc2nc(-c3ccc(Cl)cc3)c(Br)s2)c1F [Example 159, 3-[5-Bromo-4-(4-chloro-phenyl)-thiazol-2-ylmethoxy]-2,6-difluoro-benzamide]	< 8	< 8	–	–
NC(=O)c1c(F)ccc(OCc2cccc(Oc3ccccc3)c2)c1F [Example 162, 2,6-Difluoro-3-(3-phenoxy-benzyloxy)-benzamide]	< 8	< 8	–	–
COc1ccc(-c2nc(COc3ccc(F)c(C(N)=O)c3F)sc2-c2cncs2)cc1 [Example 164, 2,6-Difluoro-3-[4-(4-methoxy-phenyl)-[5,5′]bithiazolyl-2-ylmethoxy]-benzamide]	–	–	< 8	< 8
CC(=O)Oc1cccc(COc2cccc(C(N)=O)c2)c1 [Example 172, 3-[3-(Aminocarbonyl)phenoxy]methylphenyl acetate]	> 64	> 64	–	–

More lines, main results first:

MIC (Bacillus subtilis 168CA; Bacillus subtilis 168CA) [µg/mL]	MIC [1, 2] [µg/mL]	Structure (SMILES)	MIC (Bacillus subtilis 168CA; Bacillus subtilis, 168CA) [µg/mL]	MIC ([1]; Staphylococcus aureus, ATCC29213, read-out: Staphylococcus aureus MICs Activity) [µg/mL]
< 8	16 to 64 (≈ 40.7 to 163 µM)	NC(=O)c1c(F)ccc(OCc2ccc3c(Br)cccc3n2)c1F [Example 151, 3-(5-Bromo-quinolin-2-ylmethoxy)-2,6-difluoro-benzamide]	–	–
< 8	< 8	NC(=O)c1c(F)ccc(OCc2nc(-c3cccs3)no2)c1F [Example 153, 2,6-Difluoro-3-(3-thiophen-2-yl-[1,2,4]oxadiazol-5-ylmethoxy)-benzamide]	–	–
< 8	< 8	NC(=O)c1c(F)ccc(OCc2cccc(-n3cccc3)c2)c1F [Example 161, 2,6-Difluoro-3-(3-pyrrol-1-yl-benzyloxy)-benzamide]	–	–
< 8	< 8	NC(=O)c1c(F)ccc(OCc2cc(-c3ccccc3)on2)c1F [Example 163, 2,6-Difluoro-3-(5-phenyl-isoxazol-3-ylmethoxy)-benzamide]	–	–
< 8	< 8	CCCCCCOc1cccc(C(N)=O)c1F [Example 165, 2-Fluoro-3-Hexoxy-benzamide]	–	–
> 64	> 64	CCCCCCOc1cccc(C(N)=O)c1O [Example 166, 2-Hydroxy-3-Hexoxy-benzamide]	–	–
16 to 64 (≈ 66.9 to 267 µM)	16 to 64 (≈ 66.9 to 267 µM)	CCCCCCOc1cc(F)cc(C(N)=O)c1 [Example 167, 3-Fluoro-5-hexyloxy benzamide]	–	–
> 64	> 64	NC(=O)c1cccc(OCn2cccn2)c1 [Example 168, 3-(Pyrazol-1-ylmethoxy)-benzamide]	–	–
16 to 64 (≈ 52.3 to 209 µM)	16 to 64 (≈ 52.3 to 209 µM)	NC(=O)c1cccc(OCc2cccc(Br)c2)c1 [Example 171, 3-[(3-Bromobenzyl)oxy]benzenecarboxamide]	–	–
16 to 64 (≈ 62.3 to 249 µM)	16 to 64 (≈ 62.3 to 249 µM)	CCCCCCOc1nccc(C(N)=O)c1Cl [Example 174, 3-Chloro-2-(hexyloxy)isonicotinamide]	–	–
